Tests used:
Format in all cases: functional
COLO 205 = test: Growth inhibition of human COLO205 cells after 48 hrs by sulforhodamine B assay; details: COLO 205, 48 h
UO-31 = test: Growth inhibition of human UO31 cells after 48 hrs by sulforhodamine B assay; details: UO-31, 48 h
OVCAR-8 = test: Growth inhibition of human OVCAR8 cells after 48 hrs by sulforhodamine B assay; details: OVCAR-8, 48 h
NCI/ADR-RES = test: Growth inhibition of human NCI/ADR-RES cells after 48 hrs by sulforhodamine B assay
EKVX = test: Growth inhibition of human EKVX cells after 48 hrs by sulforhodamine B assay
SF-268 = test: Growth inhibition of human SF268 cells after 48 hrs by sulforhodamine B assay; details: SF-268, 48 h
Malme-3M = test: Growth inhibition of human MALME-3M cells after 48 hrs by sulforhodamine B assay
CCRF-CEM = test: Growth inhibition of human CCRF-CEM cells after 48 hrs by sulforhodamine B assay
SNB-19 = test: Growth inhibition of human SNB19 cells after 48 hrs by sulforhodamine B assay; details: SNB-19, 48 h
MOLT-4 = test: Growth inhibition of human MOLT4 cells after 48 hrs by sulforhodamine B assay; details: MOLT-4, 48 h
HOP-62 = test: Growth inhibition of human HOP62 cells after 48 hrs by sulforhodamine B assay; details: HOP-62, 48 h
LOX IMVI = test: Growth inhibition of human LOXIMVI cells after 48 hrs by sulforhodamine B assay
U-251 = test: Growth inhibition of human U251 cells after 48 hrs by sulforhodamine B assay; details: U-251, 48 h
RXF 393 = test: Growth inhibition of human RXF393 cells after 48 hrs by sulforhodamine B assay; details: RXF 393, 48 h
UACC-62 = test: Growth inhibition of human UACC62 cells after 48 hrs by sulforhodamine B assay; details: UACC-62, 48 h
MCF7 = test: Growth inhibition of human MCF7 cells after 48 hrs by sulforhodamine B assay; details: MCF7, 48 h
HT-29 = test: Growth inhibition of human HT-29 cells after 48 hrs by sulforhodamine B assay; details: HT-29, 48 h
HCC 2998 = test: Growth inhibition of human HCC2998 cells after 48 hrs by sulforhodamine B assay; details: HCC 2998, 48 h
M14 = test: Growth inhibition of human M14 cells after 48 hrs by sulforhodamine B assay; details: M14, 48 h
ACHN = test: Growth inhibition of human ACHN cells after 48 hrs by sulforhodamine B assay
IGROV-1 = test: Growth inhibition of human IGROV1 cells after 48 hrs by sulforhodamine B assay; details: IGROV-1, 48 h
HCT-116 = test: Growth inhibition of human HCT116 cells after 48 hrs by sulforhodamine B assay; details: HCT-116, 48 h
HOP-92 = test: Growth inhibition of human HOP92 cells after 48 hrs by sulforhodamine B assay; details: HOP-92, 48 h
MDA-MB-468 = test: Growth inhibition of human MDA-MB-468 cells after 48 hrs by sulforhodamine B assay; details: MDA-MB-468, 48 h
NCI-H522 = test: Growth inhibition of human NCI-H522 cells after 48 hrs by sulforhodamine B assay; details: NCI-H522, 48 h
SF-295 = test: Growth inhibition of human SF295 cells after 48 hrs by sulforhodamine B assay; details: SF-295, 48 h

What does the source list for COc1cc(/C=C/c2ccc3c(c2)C[C@@H]2C(C)(C)[C@H](O)CC[C@@]2(C)O3)cc(O)c1C/C=C(\C)CCC=C(C)C?
GI50 (COLO 205): 3.63 µM; LC50 (COLO 205): 49 µM; TGI (COLO 205; read-out: pTGI (converted)): 11 µM; GI50 (UO-31): 5.01 µM; LC50 (UO-31): 64.6 µM; TGI (UO-31; read-out: pTGI (converted)): 20 µM; GI50 (OVCAR-8): 25.1 µM; LC50 (OVCAR-8): > 100 µM; TGI (OVCAR-8; read-out: pTGI (converted)): 74.1 µM; GI50 (NCI/ADR-RES): 21.4 µM; LC50 (NCI/ADR-RES): > 100 µM; TGI (NCI/ADR-RES; read-out: pTGI (converted)): 51.3 µM; GI50 (EKVX): 14.5 µM; LC50 (50% lethal concentration) (EKVX): > 100 µM; TGI (EKVX; read-out: pTGI (converted)): 57.5 µM; GI50 (SF-268): 14.8 µM; LC50 (SF-268): 81.3 µM; TGI (SF-268; read-out: pTGI (converted)): 34.7 µM; GI50 (Malme-3M): 17.8 µM; LC50 (Malme-3M): 91.2 µM; TGI (Malme-3M; read-out: pTGI (converted)): 40.7 µM; GI50 (CCRF-CEM): 8.32 µM; LC50 (CCRF-CEM): > 100 µM; TGI (CCRF-CEM; read-out: pTGI (converted)): > 100 µM; GI50 (SNB-19): 15.5 µM; LC50 (SNB-19): 91.2 µM; TGI (SNB-19; read-out: pTGI (converted)): 37.2 µM; GI50 (MOLT-4): 5.01 µM; LC50 (MOLT-4): > 100 µM; TGI (MOLT-4; read-out: pTGI (converted)): 38.9 µM; GI50 (HOP-62): 6.17 µM; LC50 (HOP-62): 52.5 µM; TGI (HOP-62; read-out: pTGI (converted)): 20 µM; GI50 (LOX IMVI): 3.31 µM; LC50 (LOX IMVI): 37.2 µM; TGI (LOX IMVI; read-out: pTGI (converted)): 11.5 µM; GI50 (U-251): 5.62 µM; LC50 (U-251): 63.1 µM; TGI (U-251; read-out: pTGI (converted)): 22.4 µM; GI50 (RXF 393): 1.29 µM; LC50 (50% lethal concentration) (RXF 393): 6.61 µM; TGI (RXF 393; read-out: pTGI (converted)): 2.88 µM; GI50 (UACC-62): 12.9 µM; LC50 (50% lethal concentration) (UACC-62): 70.8 µM; TGI (UACC-62; read-out: pTGI (converted)): 30.2 µM; GI50 (MCF7): 16.6 µM; LC50 (MCF7): 79.4 µM; TGI (MCF7; read-out: pTGI (converted)): 36.3 µM; GI50 (HT-29): 1.95 µM; LC50 (concentration killing 50% of cells) (HT-29): 23.4 µM; TGI (HT-29; read-out: pTGI (converted)): 5.01 µM; GI50 (HCC 2998): 15.8 µM; LC50 (HCC 2998): 85.1 µM; TGI (HCC 2998; read-out: pTGI (converted)): 37.2 µM; GI50 (M14): 13.8 µM; LC50 (M14): 56.2 µM; TGI (M14; read-out: pTGI (converted)): 27.5 µM; GI50 (ACHN): 20 µM; LC50 (ACHN): > 100 µM; TGI (ACHN; read-out: pTGI (converted)): 46.8 µM; GI50 (IGROV-1): 14.5 µM; LC50 (IGROV-1): 70.8 µM; TGI (IGROV-1; read-out: pTGI (converted)): 31.6 µM; GI50 (HCT-116): 7.76 µM; LC50 (HCT-116): 45.7 µM; TGI (HCT-116; read-out: pTGI (converted)): 20.4 µM; GI50 (HOP-92): 17.8 µM; LC50 (HOP-92): > 100 µM; TGI (HOP-92; read-out: pTGI (converted)): 49 µM; GI50 (MDA-MB-468): 11 µM; LC50 (MDA-MB-468): 72.4 µM; TGI (MDA-MB-468; read-out: pTGI (converted)): 28.2 µM; GI50 (NCI-H522): 17.8 µM; LC50 (NCI-H522): 66.1 µM; TGI (NCI-H522; read-out: pTGI (converted)): 33.9 µM; LC50 (SF-295): 38.9 µM; GI50 (SF-295; read-out: GI50): 1.66 µM; GI50 (SF-295; read-out: pGI50 (converted)): 1.66 µM; TGI (SF-295; read-out: pTGI (converted)): 5.89 µM

Source: ChEMBL document CHEMBL1926642, “Relevance of the C-5 position to schweinfurthin induced cytotoxicity” (2011)
